Measured values from US20090215693A1, “METHODS FOR INCREASING HYALURONIC ACID LEVELS AND IMPROVING MOISTURE RETENTION IN TISSUE” (priority 2008, published 2009).

System: Fibroblasts
Experiment: Hyaluronic acid production by cultured fibroblasts (ELISA of culture medium)
Format: cell-based
Conditions: fibroblasts, 48 hours incubation, culture medium
Experimental: Fibroblasts were seeded into individual wells of a 12-well plate in 1.0 ml of Fibroblast Growth Media (FGM) and incubated overnight at 37±2° C. and 5±1% CO2. On the following day the media was removed via aspiration to eliminate non-adherent cells and replaced with 1.0 ml of fresh FGM. Cells were grown until confluent, with a media change every 48 to 72 hours. Upon reaching confluency the cells were treated for 24 hours with DMEM supplemented with 1.5% FBS to eliminate growth factors from the normal culture media. After this 24-hour wash-out period the cells were treated with the indicated test materials (i.e., milk-derived products containing lactoferrin) at the specified concentrations dissolved in FGM with 1.5% FBS. Dibutyrl cAMP (DBcAMP) at 0.1 mM was used as a positive control. Untreated cells (negative control) received FGM with 1.5% FBS. The cells were incubated for 48 hours and at the end of the incubation period cell culture medium was collected and either stored frozen (−75° C.) or assayed immediately. All testing was done in triplicate.
A series of hyaluronic acid standards from 50 ng/ml to 3,200 ng/ml was prepared. […] After incubation, 50 μl of stop solution was added to each well and the absorbance was measured at 405 nm using a plate reader. Hyaluronic acid production was expressed as ng/ml and results are shown in Table 1 and the graph of FIG. 1.

SMILES	HA Measured (amount applied 0.1 mM (positive control))	HA Measured (amount applied 4 mM)
CCCC(=O)Nc1ncnc2c1ncn2[C@@H]1O[C@@H]2COP(=O)(O)O[C@H]2[C@H]1OC(=O)CCC [DBcAMP, dibutyryl cyclic AMP]	416 ± 24 ng/mL	
CCCC(=O)[O-].[Na+] [Sodium Butyrate]		139 ± 6 ng/mL
